Test results taken from patent US20250179057A1, “MEK IMMUNE ONCOLOGY INHIBITORS AND THERAPEUTIC USES THEREOF” (Immuneering Corporation, priority 2022, published 2025).

Experiments:
[1] = Guo et al Lancet Oncol. 2020; cited from earlier work
[2] = Plasma stability, rat plasma (Wistar Han / wistar hannover; Table 5 head SD Rat); assay type: in vitro ADME; conditions: Wistar Hannover, rat, plasma, pH 7.4
Protocol: (§1) Individual stock solutions of propantheline and lovastatin were prepared at 10 mM in DMSO and were further diluted to 2 mM with DMSO.
(§2) Frozen matrices (Balb/c mouse, Wistar Han rat, Beagle dog, and human plasma containing K2EDTA as anti-coagulant) were thawed and centrifuged at 3100 rpm for 10 minutes at 4° C. to remove particulates. The lipid layer was then removed, and the supernatant was transferred to a new tube without disturbing the pellet. After the matrices were incubated at 37° C. for at least 10 minutes, the pH of each matrix was adjusted to pH 7.4, using 10% phosphoric acid or 1N sodium hydroxide as necessary. Test and control article stock solutions were spiked (2 μL) into matrix (1.998 mL) and mixed to final assay concentration of […]. Duplicate 30-μL aliquots of spiked plasma were transferred to matrix tubes in 96-well plate immediately after spiking for timepoints of 0, 30, 60, 120, 240, and 360 minutes. These tubes were then incubated at 37° C. with shaking and at each timepoint, the corresponding tubes containing samples were quenched with 180 μL of cold acetonitrile containing the internal standards. The quenched samples were vortex-mixed briefly and stored refrigerated. After the final time point (360 minutes), the plates with all quenched samples were vortex-mixed for 10 minutes and then centrifuged at 3100 rpm for 10 minutes at 4° C. to sediment the precipitated protein. The supernatant (50 μL) was transferred to a clean 96-well plate and diluted with 100 μL of water. The plates were stored refrigerated until analysis.
(§3) Data Analysis: Peak area ratios for IS-normalized test article and control article counts were used to calculate the percent remaining relative to the time zero (T0) value. As appropriate, results were plotted and further analyzed to calculate half-life (T1/2) values.
(§4) Mean peak area ratios were used to calculate the % remaining relative to the T0 value:
(§5) In this study, human, cynomolgus monkey, beagle dog, wistar hannover rat, and balb/c plasma stability was determined. Table 28 describes the results of the human plasma stability at 2 μM concentration and anti-coagulant K2-EDTA from 10 to 120 min. Table 29 describes the results of the cynomolgus monkey plasma stability at 2 μM concentration and anti-coagulant K2-EDTA. Table 30 describes the results of the beagle dog plasma stability at 2 μM concentration and anti-coagulant K2-EDTA. Table 31 describes the results of the wistar hannover rat plasma stability at 2 μM concentration and anti-coagulant K2-EDTA. Table 32 describes the results of the balb/c plasma stability at 2 μM concentration and anti-coagulant K2-EDTA.

[3] = Plasma stability, human plasma (K2EDTA); assay type: in vitro ADME; conditions: human, pH 7.4
Protocol: as §1, §2, §3, §4, §5

[4] = Plasma stability, cynomolgus monkey plasma (K2-EDTA); assay type: in vitro ADME
Protocol: as §1, §2, §3, §4, §5

[5] = Plasma stability, mouse plasma (Balb/c; Table 5 head CD-1 Mouse); assay type: in vitro ADME; conditions: BALB/c, mouse, plasma, pH 7.4
Protocol: as §1, §2, §3, §4, §5

[6] = as above; assay type: in vitro ADME; conditions: CD-1, mouse, 2 h, 2 μM, pH 7.4
[7] = Plasma stability, beagle dog plasma (K2EDTA); assay type: in vitro ADME; conditions: beagle, dog, pH 7.4
Protocol: as §1, §2, §3, §4, §5

[8] = system: phospho-ERK in A549 (KRAS G12S) cells; assay: Cell-based pERK (pERK:tERK) in A549 cells
Outline: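 Readout was pERK versus tERK by Western blot with IRDye-labelled secondary antibodies, imaged and quantified on a LI-COR Odyssey. Lysates were loaded at 1 mg/mL protein after Bradford estimation.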

[9] = Kinetic solubility (PBS pH 7.4; 4 hr); assay type: physicochemical; conditions: PBS pH = 7.4; 4 hr (Table 8)
Protocol: The plates were shaken for 4 h at room temperature in an Eppendorf Thermomixer. After incubation, the plates were centrifuged for 20 minutes at 4680 rpm. From the supernatant, 150 μL was transferred to a new 96 well plate and 50 μL DMSO was added to ensure continued dissolution. Samples were measured on LC-UV at injection volumes of 1 and 8 μL. Peak areas were determined and compared to peak areas obtained using calibration curves of the test compounds in DMSO.

[10] = eLogD (lipophilicity; pH 7.4) by HPLC; assay type: physicochemical
Protocol: Test compounds were dissolved in DMSO at a concentration of 10 mM and further diluted with methanol:water 1:1. Samples were analyzed using gradient HPLC with three different isocratic mobile phases of 0.25% octanol in methanol (60, 65 and 70%) and 20 mM MOPS buffer (pH 7.4) with decylamine. If needed, (for low E log Doct compounds) the isocratic mobile phases were adjusted to e.g. 40, 45 and 50% methanol. Peaks were detected using a diode array at absorbance 220-320 nm.
Capacity factors data (k′_=(tr−_t0)/t0) obtained at various amounts of methanol were extrapolated to 0% methanol and k′w values are determined using a linear procedure. E log Doct (7.4) is calculated using a series of reference standards with known Log D values. Each experiment was performed in triplicate.

[11] = PAMPA (pH 7.4); assay type: in vitro ADME; conditions: pH = 7.4
Protocol: Each stock solution was diluted to 50 M in pH 7.4 Prisma HT buffer (pION) and 200 μl was added to each well of the donor plate in triplicate. The polyvinylidene fluoride (PVDF, 0.45 μm) filter membrane on the acceptor plate was coated with 5 μl gastrointestinal tract lipid formulation (GIT-0, pION) and to each well of the acceptor plate, 200 μl of acceptor sink buffer (pION) was added. The acceptor filter plate was then carefully placed on top of the donor plate to form a sandwich. The sandwich was incubated at 25° C. for 4 h without stirring. UV-vis spectra of the solutions in the blank, reference, acceptor and donor plates were measured using a microplate reader (Tecan Infinite 200PRO M Nano Plus). Permeability values were calculated using the PAMPA explorer software v.

[12] = Human liver microsome stability (t1/2, Clint); conditions: 1 μM; 0.5 mg/ml microsomal protein
[13] = Mouse liver microsome stability (t1/2, Clint); conditions: 1 μM; 0.5 mg/ml microsomal protein
[14] = system: phospho-MEK in A549 cells; assay: Cell-based pMEK (pMEK:tMEK, CRAF bypass) in A549 cells; conditions: 2 h, pMEK to total MEK normalized to DMSO control
Outline: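 Cells (A549 or A375) exposed 2 h to compounds at varying concentrations in duplicate, then lysed; lysates set to 1.5 mg/mL for pMEK by quantitative Western (Jess). Phospho-MEK/total MEK ratio normalized to DMSO control.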

CNS(=O)(=O)Nc1nccc(Cc2c(C)c3ccc(Oc4ncccn4)cc3oc2=O)c1F [VS-6766]
mean terminal half-life [1]: 53.6 h

CC(C)[N+](C)(CCOC(=O)C1c2ccccc2Oc2ccccc21)C(C)C [Propantheline, reference compound]
% Remaining at T120 ([2]; 2 h, 2 μM): 115.2% | half-life at 2 μM [2]: > 2 h | Human (% Reamining @2 hour) ([3]; 2 h, 2 μM): 5.7% | % Remaining at T120 ([3]; plasma, 2 h, 2 μM): 20.8% | half-life at 2 μM ([3]; plasma): 0.943 h | % Remaining at T120 ([4]; 2 μM, anti-coagulant K2-EDTA, 120 min): 84.6% | half-life at 2 μM ([4]; plasma (K2EDTA), pH 7.4, anti-coagulant K2-EDTA): 7.5 h | % Remaining at T120 ([5]; 2 h, 2 μM): 37.3% | half-life at 2 μM [5]: 1.68 h | CD-1 Mouse (% Reamining @2 hour) [6]: 27.1% | Beagle Dog (% Reamining @2 hour) ([7]; 2 h, 2 μM): 58.4% | % Remaining at T120 ([7]; plasma, 2 h, 2 μM): 71.0% | half-life at 2 μM ([7]; plasma): 4.87 h

CNS(=O)(=O)Nc1cccc(Cc2c(CN3CCC3)c3cc(Cl)c(OC(=O)N(C)C)cc3oc2=O)c1F [Compound 19]
A549-pERK (10 nM, 2 h) ([8]; 10 nM, 2 h, phospho- to total protein ratio normalized to DMSO control (Table 9)): 59.9 | IC50 ([8]; A549, 12-point dose): 0.04 to 0.05 µM | Kinetic Solubility (PBS pH = 7.4; 4 hr) [9]: >80 uM | eLogD (lipophilicity; pH = 7.4) [10]: 2.9 | PAMPA (pH = 7.4; Papp 10^−6 cm/s) [11]: 51 10^−6 cm/s | Human Clint [12]: 37 µL/min/mg | Human Microsome (t1/2 min) [12]: 0.633 h | Mouse Clint [13]: 26 µL/min/mg | Mouse Microsome (t1/2 min) [13]: 0.883 h | A549-CRAF BP 100 nM, 2 h [14]: 51.9
